These results are taken from ChEMBL document CHEMBL4325871 (Eur J Med Chem, 2019).

Test [1] has as its target CDK2/Cyclin O (Homo sapiens) (UniProt P24941+P22674). In words: Inhibition of human CDK2/cyclin-O assessed as residual activity at 1 uM using histone H1 as substrate by [gamma-33P]-ATP assay relative to control. It is filed as protein-complex assay.
Test [2] deals with Mitogen-activated protein kinase kinase kinase 19 (Homo sapiens) (UniProt Q56UN5). The experiment in a line: Inhibition of human YSK4 assessed as residual activity at 1 uM using MBP as substrate by [gamma-33P]-ATP assay relative to control.
Sequence of Mitogen-activated protein kinase kinase kinase 19 (Homo sapiens) (Q56UN5 whole entry): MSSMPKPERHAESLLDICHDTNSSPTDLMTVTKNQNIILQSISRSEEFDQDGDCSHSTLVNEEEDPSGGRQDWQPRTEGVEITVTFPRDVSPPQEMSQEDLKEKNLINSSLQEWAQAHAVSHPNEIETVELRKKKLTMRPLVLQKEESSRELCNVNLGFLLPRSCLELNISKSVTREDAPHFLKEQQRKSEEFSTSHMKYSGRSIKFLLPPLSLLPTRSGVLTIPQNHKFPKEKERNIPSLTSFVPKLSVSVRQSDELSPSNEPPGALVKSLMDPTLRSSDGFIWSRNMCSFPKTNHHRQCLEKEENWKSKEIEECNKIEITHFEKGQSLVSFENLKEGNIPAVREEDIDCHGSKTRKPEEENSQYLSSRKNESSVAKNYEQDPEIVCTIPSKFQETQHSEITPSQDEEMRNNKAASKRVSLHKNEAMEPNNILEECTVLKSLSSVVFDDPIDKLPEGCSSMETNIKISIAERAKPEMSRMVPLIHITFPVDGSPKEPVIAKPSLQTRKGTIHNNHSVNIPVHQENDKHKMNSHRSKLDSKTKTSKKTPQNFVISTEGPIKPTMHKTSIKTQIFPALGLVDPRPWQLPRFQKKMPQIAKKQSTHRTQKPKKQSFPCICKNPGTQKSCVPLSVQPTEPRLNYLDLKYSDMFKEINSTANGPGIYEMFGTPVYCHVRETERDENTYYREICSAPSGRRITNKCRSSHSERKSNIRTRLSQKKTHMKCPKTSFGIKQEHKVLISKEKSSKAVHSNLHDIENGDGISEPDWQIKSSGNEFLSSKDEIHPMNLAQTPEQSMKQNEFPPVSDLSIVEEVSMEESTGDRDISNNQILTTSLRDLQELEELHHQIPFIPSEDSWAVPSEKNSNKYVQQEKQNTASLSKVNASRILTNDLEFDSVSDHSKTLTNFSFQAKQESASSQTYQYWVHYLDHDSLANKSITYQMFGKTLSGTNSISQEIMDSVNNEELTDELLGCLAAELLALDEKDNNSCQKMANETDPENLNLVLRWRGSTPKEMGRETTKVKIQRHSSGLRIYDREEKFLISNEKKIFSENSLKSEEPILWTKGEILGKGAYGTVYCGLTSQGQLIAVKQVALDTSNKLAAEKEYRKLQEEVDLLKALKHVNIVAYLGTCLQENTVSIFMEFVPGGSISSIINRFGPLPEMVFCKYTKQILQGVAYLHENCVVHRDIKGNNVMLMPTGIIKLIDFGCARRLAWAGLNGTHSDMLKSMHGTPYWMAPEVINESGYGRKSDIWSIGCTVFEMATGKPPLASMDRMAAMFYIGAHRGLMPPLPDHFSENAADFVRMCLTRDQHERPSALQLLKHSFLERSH
Test [3] deals with MAP kinase-interacting serine/threonine-protein kinase 2 (Homo sapiens) (UniProt Q9HBH9). The experiment in a line: Inhibition of human MNK2 assessed as residual activity at 1 uM using MBP as substrate by [gamma-33P]-ATP assay relative to control.
Test [4] concerns the target Angiopoietin-1 receptor (Homo sapiens) (UniProt Q02763). In words: Inhibition of human TIE2 assessed as residual activity at 1 uM using poly[Glu:Tyr] (4:1) as substrate by [gamma-33P]-ATP assay relative to control.
Test [5] concerns the target Activin receptor type-1 (Homo sapiens) (UniProt Q04771). In words: Inhibition of human ALK2 assessed as residual activity at 1 uM using casein as substrate by [gamma-33P]-ATP assay relative to control.
For test [6], the target named is Dual specificity protein kinase CLK3 (Homo sapiens) (UniProt P49761). In words: Inhibition of human CLK3 assessed as residual activity at 1 uM using MBP as substrate by [gamma-33P]-ATP assay relative to control.
The target in test [7] is Serine/threonine-protein kinase 17A (Homo sapiens) (UniProt Q9UEE5). In words: Inhibition of human DRAK1 assessed as residual activity at 1 uM using KKLNRTLSFAEPG as substrate by [gamma-33P]-ATP assay relative to control.
Sequence of Serine/threonine-protein kinase 17A (Homo sapiens) (Q9UEE5 whole entry): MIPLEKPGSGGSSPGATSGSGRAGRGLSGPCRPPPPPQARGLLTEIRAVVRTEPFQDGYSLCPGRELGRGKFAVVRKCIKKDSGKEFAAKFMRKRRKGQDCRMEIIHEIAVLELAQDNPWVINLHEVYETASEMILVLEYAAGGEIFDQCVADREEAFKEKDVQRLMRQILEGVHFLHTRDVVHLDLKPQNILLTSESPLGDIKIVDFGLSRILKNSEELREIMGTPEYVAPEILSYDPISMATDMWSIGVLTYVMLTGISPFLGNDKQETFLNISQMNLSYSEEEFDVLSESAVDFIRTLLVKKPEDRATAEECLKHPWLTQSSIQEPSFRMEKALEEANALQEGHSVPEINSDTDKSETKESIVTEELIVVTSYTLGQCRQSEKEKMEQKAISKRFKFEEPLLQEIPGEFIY
Test [8] has as its target Dual specificity mitogen-activated protein kinase kinase 1 (Homo sapiens) (UniProt Q02750). The experiment in a line: Inhibition of human MEK1 assessed as residual activity at 1 uM using ERK2 as substrate by [gamma-33P]-ATP assay relative to control.
Test [9] concerns the target Protein kinase C alpha type (Homo sapiens) (UniProt P17252). The experiment in a line: Inhibition of human PKCalpha assessed as residual activity at 1 uM using ERMRPRKRQGSVRRRV as substrate by [gamma-33P]-ATP assay relative to control.
Test [10] has as its target Serine/threonine-protein kinase 33 (Homo sapiens) (UniProt Q9BYT3). In words: Inhibition of human STK33 assessed as residual activity at 1 uM using MBP as substrate by [gamma-33P]-ATP assay relative to control.
Test [11] deals with T1, Serine/threonine-protein kinase Chk1 (Homo sapiens) (UniProt O14757).
T1 sequence (whole entry): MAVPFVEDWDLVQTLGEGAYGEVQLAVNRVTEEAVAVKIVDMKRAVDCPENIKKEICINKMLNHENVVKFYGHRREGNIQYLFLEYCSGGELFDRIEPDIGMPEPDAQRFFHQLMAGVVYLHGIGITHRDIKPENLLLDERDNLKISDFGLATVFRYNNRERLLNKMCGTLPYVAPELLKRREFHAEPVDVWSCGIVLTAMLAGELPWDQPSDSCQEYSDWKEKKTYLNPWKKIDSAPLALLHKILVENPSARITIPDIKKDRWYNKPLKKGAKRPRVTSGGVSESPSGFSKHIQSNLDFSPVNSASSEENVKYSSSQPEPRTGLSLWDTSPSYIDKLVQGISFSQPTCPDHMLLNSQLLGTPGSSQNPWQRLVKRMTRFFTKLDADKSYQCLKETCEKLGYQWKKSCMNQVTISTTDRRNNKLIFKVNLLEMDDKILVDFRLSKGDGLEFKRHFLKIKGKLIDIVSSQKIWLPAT
The experiment in a line: Inhibition of CHK1 phosphorylation at S317 residue in human FOLFOX-resistant HCT116 cells after 24 hrs by Western blot analysis. On the technique in general: Immunoblotting shows a protein as a band on a membrane.

For test [12], the target named is Calcium/calmodulin-dependent protein kinase kinase 1 (Homo sapiens) (UniProt Q8N5S9). The experiment in a line: Inhibition of human CAMKK1 assessed as residual activity at 1 uM using MBP as substrate by [gamma-33P]-ATP assay relative to control.
The target of test [13] is T1, Serine/threonine-protein kinase Chk1 (Homo sapiens). The experiment in a line: Inhibition of CHK1 phosphorylation at S296 residue in human FOLFOX-resistant HCT116 cells after 24 hrs by Western blot analysis.
The target in test [14] is Tyrosine-protein kinase ZAP-70 (Homo sapiens) (UniProt P43403). In words: Inhibition of human ZAP70 assessed as residual activity at 1 uM using poly[Glu:Tyr] (4:1) as substrate by [gamma-33P]-ATP assay relative to control.
Test [15] concerns the target Serine/threonine-protein kinase TAO1 (Homo sapiens) (UniProt Q7L7X3). In words: Inhibition of human TAOK1 assessed as residual activity at 1 uM using MBP as substrate by [gamma-33P]-ATP assay relative to control.
The target of test [16] is Serine/threonine-protein kinase Nek9 (Homo sapiens) (UniProt Q8TD19). The experiment in a line: Inhibition of human NEK9 assessed as residual activity at 1 uM using casein as substrate by [gamma-33P]-ATP assay relative to control.
For test [17], the target named is Rhodopsin kinase GRK1 (Homo sapiens) (UniProt Q15835). The experiment in a line: Inhibition of human GRK1 assessed as residual activity at 1 uM using casein as substrate by [gamma-33P]-ATP assay relative to control.
The target of test [18] is Serine/threonine-protein kinase DCLK2 (Homo sapiens) (UniProt Q8N568). The experiment in a line: Inhibition of human DCAMKL2 assessed as residual activity at 1 uM using KKLNRTLSFAEPG as substrate by [gamma-33P]-ATP assay relative to control.
Sequence of Serine/threonine-protein kinase DCLK2 (Homo sapiens) (Q8N568 whole entry): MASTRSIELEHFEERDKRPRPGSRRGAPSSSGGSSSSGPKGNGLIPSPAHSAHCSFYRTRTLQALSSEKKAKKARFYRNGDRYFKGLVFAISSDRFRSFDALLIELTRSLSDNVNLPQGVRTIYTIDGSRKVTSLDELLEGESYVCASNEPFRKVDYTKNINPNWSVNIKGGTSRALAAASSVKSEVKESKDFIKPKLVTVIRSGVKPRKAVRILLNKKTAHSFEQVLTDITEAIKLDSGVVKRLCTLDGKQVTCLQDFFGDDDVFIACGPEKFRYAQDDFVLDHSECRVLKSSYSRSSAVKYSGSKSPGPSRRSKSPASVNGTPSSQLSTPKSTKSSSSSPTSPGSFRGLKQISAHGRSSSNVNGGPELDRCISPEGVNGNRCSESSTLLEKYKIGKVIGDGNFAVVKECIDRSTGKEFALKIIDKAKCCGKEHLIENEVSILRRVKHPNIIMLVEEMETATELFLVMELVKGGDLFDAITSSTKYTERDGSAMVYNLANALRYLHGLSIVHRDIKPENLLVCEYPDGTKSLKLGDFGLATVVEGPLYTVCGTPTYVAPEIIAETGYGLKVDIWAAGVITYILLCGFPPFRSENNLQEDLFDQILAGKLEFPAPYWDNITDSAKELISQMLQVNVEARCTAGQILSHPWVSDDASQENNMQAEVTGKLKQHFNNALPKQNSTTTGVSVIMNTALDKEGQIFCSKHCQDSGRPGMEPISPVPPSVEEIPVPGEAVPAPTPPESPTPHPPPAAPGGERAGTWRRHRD
Test [19] concerns the target CDK9/Cyclin-T2 (Homo sapiens) (UniProt P50750+O60583). The experiment in a line: Inhibition of human CDK9/cyclin-T2 assessed as residual activity at 1 uM using KTFCGTPEYLAPEVRREPRILSEEEQEMFRDFDYIADWC as substrate by [gamma-33P]-ATP assay relative to control. It is filed as protein-complex assay.
For test [20], the target named is Interleukin-1 receptor-associated kinase 4 (Homo sapiens) (UniProt Q9NWZ3). The experiment in a line: Inhibition of human IRAK4 assessed as residual activity at 1 uM using MBP as substrate by [gamma-33P]-ATP assay relative to control.
For test [21], the target named is Serine/threonine-protein kinase 26 (Homo sapiens) (UniProt Q9P289). The experiment in a line: Inhibition of human MST4 assessed as residual activity at 1 uM using MBP as substrate by [gamma-33P]-ATP assay relative to control.
Sequence of Serine/threonine-protein kinase 26 (Homo sapiens) (Q9P289 2-416 limits assumed): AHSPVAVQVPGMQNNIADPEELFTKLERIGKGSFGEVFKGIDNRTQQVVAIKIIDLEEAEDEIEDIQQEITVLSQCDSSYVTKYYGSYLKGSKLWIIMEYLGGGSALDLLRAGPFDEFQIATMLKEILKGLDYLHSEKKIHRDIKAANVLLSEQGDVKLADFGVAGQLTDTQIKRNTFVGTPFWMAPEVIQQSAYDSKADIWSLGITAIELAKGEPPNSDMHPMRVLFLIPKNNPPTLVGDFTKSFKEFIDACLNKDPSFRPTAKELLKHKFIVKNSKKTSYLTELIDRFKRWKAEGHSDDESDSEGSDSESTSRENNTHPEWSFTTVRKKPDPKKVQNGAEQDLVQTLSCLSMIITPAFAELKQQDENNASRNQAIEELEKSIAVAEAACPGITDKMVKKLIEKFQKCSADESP
In test [22] the target is cAMP-dependent protein kinase catalytic subunit PRKX (Homo sapiens) (UniProt P51817). In words: Inhibition of human PRKX assessed as residual activity at 1 uM using LRRASLG as substrate by [gamma-33P]-ATP assay relative to control.
Test [23] concerns the target Cyclin-dependent kinase 14/Cyclin-Y (Homo sapiens) (UniProt O94921+Q8ND76). In words: Inhibition of human CDK14/cyclin-Y assessed as residual activity at 1 uM using RB protein as substrate by [gamma-33P]-ATP assay relative to control. It is filed as protein-complex assay.
The target of test [24] is Casein kinase II subunit alpha' (Homo sapiens) (UniProt P19784). The experiment in a line: Inhibition of human CK2A2 assessed as residual activity at 1 uM using RRRDDDSDDD as substrate by [gamma-33P]-ATP assay relative to control.

Sequence of Serine/threonine-protein kinase TAO1 (Homo sapiens) (Q7L7X3 whole entry): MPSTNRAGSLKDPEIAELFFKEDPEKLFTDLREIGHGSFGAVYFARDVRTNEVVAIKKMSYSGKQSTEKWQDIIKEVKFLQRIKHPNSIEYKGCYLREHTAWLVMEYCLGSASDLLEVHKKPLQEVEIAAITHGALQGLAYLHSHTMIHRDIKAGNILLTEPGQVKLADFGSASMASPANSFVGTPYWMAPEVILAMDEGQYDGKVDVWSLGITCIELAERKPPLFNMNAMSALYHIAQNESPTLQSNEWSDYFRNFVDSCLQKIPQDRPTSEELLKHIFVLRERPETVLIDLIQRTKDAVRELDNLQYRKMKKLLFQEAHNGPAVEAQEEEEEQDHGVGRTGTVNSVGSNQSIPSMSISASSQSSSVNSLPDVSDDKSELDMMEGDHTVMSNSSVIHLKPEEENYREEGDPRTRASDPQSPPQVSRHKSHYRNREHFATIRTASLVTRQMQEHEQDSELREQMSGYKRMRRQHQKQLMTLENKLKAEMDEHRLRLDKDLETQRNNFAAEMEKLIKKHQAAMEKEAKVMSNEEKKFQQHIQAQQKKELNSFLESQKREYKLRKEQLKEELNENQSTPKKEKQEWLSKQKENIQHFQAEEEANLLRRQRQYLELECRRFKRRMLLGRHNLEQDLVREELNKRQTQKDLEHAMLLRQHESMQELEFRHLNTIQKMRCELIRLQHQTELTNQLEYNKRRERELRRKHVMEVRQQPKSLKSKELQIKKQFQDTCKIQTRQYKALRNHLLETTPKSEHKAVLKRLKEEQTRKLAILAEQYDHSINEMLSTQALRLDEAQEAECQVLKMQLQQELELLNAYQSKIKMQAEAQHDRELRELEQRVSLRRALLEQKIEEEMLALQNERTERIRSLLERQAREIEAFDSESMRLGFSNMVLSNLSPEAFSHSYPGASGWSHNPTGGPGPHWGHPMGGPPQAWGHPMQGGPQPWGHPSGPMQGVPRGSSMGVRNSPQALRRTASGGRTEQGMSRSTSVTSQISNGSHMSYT
Sequence of Angiopoietin-1 receptor (Homo sapiens) (Q02763 whole entry): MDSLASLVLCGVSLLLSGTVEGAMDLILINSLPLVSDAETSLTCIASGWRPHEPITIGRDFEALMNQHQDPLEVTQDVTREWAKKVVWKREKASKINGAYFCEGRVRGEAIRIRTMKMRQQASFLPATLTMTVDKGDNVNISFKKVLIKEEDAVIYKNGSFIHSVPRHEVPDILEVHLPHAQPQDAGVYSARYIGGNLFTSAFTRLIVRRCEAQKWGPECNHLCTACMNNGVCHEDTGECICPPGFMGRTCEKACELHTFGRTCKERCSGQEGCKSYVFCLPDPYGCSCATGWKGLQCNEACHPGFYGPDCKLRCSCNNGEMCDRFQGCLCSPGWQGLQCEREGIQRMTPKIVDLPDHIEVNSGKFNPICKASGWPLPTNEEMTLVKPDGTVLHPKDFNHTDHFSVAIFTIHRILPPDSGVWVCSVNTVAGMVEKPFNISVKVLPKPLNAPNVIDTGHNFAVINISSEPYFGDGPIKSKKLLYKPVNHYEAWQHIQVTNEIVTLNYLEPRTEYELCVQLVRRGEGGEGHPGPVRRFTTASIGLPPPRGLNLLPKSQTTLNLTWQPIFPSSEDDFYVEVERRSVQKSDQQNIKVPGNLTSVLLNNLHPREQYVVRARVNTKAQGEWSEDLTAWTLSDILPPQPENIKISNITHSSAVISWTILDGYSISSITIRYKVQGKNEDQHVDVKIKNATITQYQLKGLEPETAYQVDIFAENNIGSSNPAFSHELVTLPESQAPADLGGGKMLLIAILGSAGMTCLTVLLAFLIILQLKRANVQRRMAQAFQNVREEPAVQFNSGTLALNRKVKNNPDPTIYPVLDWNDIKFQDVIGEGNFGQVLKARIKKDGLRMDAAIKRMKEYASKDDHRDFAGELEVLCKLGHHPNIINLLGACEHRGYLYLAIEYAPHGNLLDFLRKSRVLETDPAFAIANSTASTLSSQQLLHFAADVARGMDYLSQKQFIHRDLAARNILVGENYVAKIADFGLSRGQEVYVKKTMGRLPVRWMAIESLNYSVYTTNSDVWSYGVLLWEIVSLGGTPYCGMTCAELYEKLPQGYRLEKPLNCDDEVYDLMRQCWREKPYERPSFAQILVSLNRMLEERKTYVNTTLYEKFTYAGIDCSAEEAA

Regarding `C(=C\c1ccccc1)/C[N+]12CN3CN(CN(C3)C1)C2`, the Activity in test [1] is 94.1 to 96.4%; in test [2] it was 93.8 to 96.3%; in [3] it was 93 to 95.7%; in test [4], 91.4 to 93.7%; in test [5], 96.6 to 96.7%; in test [6], 96.2 to 96.9%. The Activity lay in the range of 92.8 to 95.6% in test [7]; 93 to 94.8% in [8]; 94 to 95.2% in test [9]; 94.9 to 95.4% in test [10]; 91.5 to 93.2% in test [12]; 94.2 to 96.3% in test [14]. The Activity in test [15] is 94.8 to 96%; in test [16], 93.4 to 95.1%; in test [17], 88.5 to 88.9%; in test [18] it was 89.2 to 89.7%; in test [19], 87 to 94.5%; in test [20] it was 92.1 to 96.8%. Also, the Activity in test [21] is 90.7 to 92.2%; in [22], 93.3 to 94.9%; in [23], 95.2 to 96.5%; in test [24] it was 122%. For the same compound, the inhibition result in test [11] and in [13] was “Dose-dependent effect” in each case.

On to `ClC/C=C/C[N+]12CN3CN(CN(C3)C1)C2`, for which the Activity was in the range of 96 to 96.3% in test [1]; 94 to 94.8% in [2]; 91.2 to 92.6% in test [3]; 95.9 to 96% in test [4]; 94.7 to 94.8% in test [5]; 92.6 to 95.8% in [6]. Moreover, the Activity in test [7] was 90.9 to 92.8%; in [8], 94.4 to 96.6%; in test [9], 93.9 to 94.3%; in test [10], 86.5 to 88.4%; in [12], 95.5 to 95.7%; in [14], 90.6 to 91.5%. Further, the Activity in test [15] lay in the range of 95.7 to 96.8%; in [16], 93.8 to 95.2%; in test [17], 88.2 to 88.7%; in test [18], 92.3 to 92.9%; in [19], 95.7 to 97.6%; in test [20], 91.5 to 92.7%. Moreover, the Activity in [21] lay within 83.3 to 87.1%; in test [22] it was 95.2 to 96%; in test [23], 96.5 to 97.3%; in [24], 117 to 118%. Besides, the inhibition result in [11] and in test [13] was “Dose-dependent effect” in each case.
